US6913878B2, “Method of detecting DNA single strand breaks” (The University of North Carolina at Chapel Hill, priority 2003, dated 2005)

Experiments:
[1] = test system: EM9-V and EM9-XH5 CHO cells; experiment: Trypan blue dye-exclusion assay (cell death); type: cell-based, Chinese hamster; details: MMS 0, 0.75, 1.5 mM for 1 and 4 hours; any concentration
Method: Cell death was determined with trypan blue staining. Cells were treated with MMS at 0, 0.75, and 1.5 mM for 1 and 4 hours. After trypsinization, cells were stained using a standard trypan blue dye-exclusion assay.

[2] = test system: PARP-1+/+ immortalized embryonic fibroblasts; experiment: Intracellular NAD(P)H assay (WST-8) in PARP-1+/+ fibroblasts; type: cell-based, mouse; details: PARP-1+/+ cells, MMS 4 hours (FIG. 4A)
Method: (§1) XRCC1-proficient and -deficient CHO cells (Taylor, et al. (2002) Mol. Cell. Biol. 22:2556-2563) were cultured as monolayers in alpha-minimal essential medium (INVITROGEN™, Carlsbad, Calif.) supplemented with 10% fetal bovine serum (Sigma-Aldrich, St. Louis, Mo.), 100 μg/mL penicillin, and 100 μg/mL streptomycin. Immortalized mouse embryonic fibroblasts derived from PART-1^+/+ and PARP-1^−/− were maintained in Dulbecco's modified Eagle's medium, 4.5 g/Liter glucose medium (INVITROGEN™, Carlsbad, Calif.) supplemented with 10% fetal bovine serum and 0.5% gentamicin (Schreiber, et al. (2002) J. Biol. Chem. 277:23028-23036). […]
(§2) A water-soluble tetrazolium salt was used to measure the amount of intracellular NAD(P)H through the reduction to a formazan dye. The total amount of NAD(P)H within viable cells in the medium was determined periodically by a spectrophotometer. […] WST-8 produced a water-soluble yellow-colored formazan dye through its bioreduction either in the presence of an electron carrier, such as 1-Methoxy PMS, Diaphorase, a flavoenzyme, or directly by NAD(P)H. Therefore, the reduction of tetrazolium salts predominantly depends on the amount of intracellular NAD(P)H. The amount of formazan dye produced by the living cells in the medium was determined approximately every 30 minutes by a spectrophotometer and compared to the values of the control. […]

[3] = test system: Human lymphoblastoid cells (GM15030, GM15061, GM15237, GM15268, GM15339, GM15349, GM15365, GM15380); experiment: Intracellular NAD(P)H assay (WST-8) in lymphoblastoid cells; type: cell-based; details: eight healthy individuals, MMS 4 hours (FIG. 6A)
Method: as §1, §2

EM9-V cells [4] = type: cell-based, Chinese hamster; details: immediately after 1 hour MMS treatment (FIG. 5D)
Method: A direct comparison was conducted between the method of the invention measuring NAD(P)H and the Comet assay for the detection of single strand breaks. Slides for the Comet assay were prepared using well-known methods (Tennant, et al. (2001) Mutat. Res. 493:1-10). Briefly, slides were dipped into agarose and dried at 60° C. Low melting point agarose (0.5%) was prepared and held at 42° C. Cell suspensions (1×10^4 cells/10 μL) were mixed with 190 μL low melting point agarose. Ninety μL of this suspension was pipetted onto each of two slides and covered with a coverglass. Each slides was placed on ice for 5 minutes, the coverglass was removed, 90 μL of low melting point agarose was pipetted onto each slide, a coverglass was reapplied, and slides were returned to the ice. After 5 minutes, the coverglass was removed and the slides were placed in lysis buffer (pH 11) containing 2.5 M NaCl, 100 mM EDTA-2Na, 10 mM Tris, 1% Na Sarcosinate, 1% TRITON® X-100 and 10% dimethylsulfoxide for 20 minutes. Following lysis, the slides were placed in denaturation buffer (i.e., electrophoresis buffer; 300 mM NaOH, 1 mM EDTA, pH 13). […]
Slides were stained using 35 μL of SYBR GREEN-1™ (MOLECULAR PROBES™, Eugene, Oreg.)(10× in Tris-EDTA buffer pH 8.0) and a coverglass was applied. […] Fifty cells from each of two slides were analyzed by a independent scorer who had no knowledge of the treatment. […]

[5] = test system: PARP-1-/- immortalized embryonic fibroblasts; experiment: Intracellular NAD(P)H assay (WST-8) in PARP-1-/- fibroblasts; type: cell-based, mouse; details: PARP-1-/- cells, MMS 4 hours, compared with PARP-1+/+ cells (FIG. 4B)
Method: as §1, §2

[6] = test system: EM9-XH5 cells (CHO EM9 cells expressing wild-type human XRCC1); experiment: Intracellular NAD(P)H assay with water-soluble tetrazolium salt WST-8 (CCK-8); type: cell-based, Chinese hamster
Method: (§3) XRCC1-proficient and -deficient CHO cells (Taylor, et al. (2002) Mol. Cell. Biol. 22:2556-2563) were cultured as monolayers in alpha-minimal essential medium (INVITROGEN™, Carlsbad, Calif.) supplemented with 10% fetal bovine serum (Sigma-Aldrich, St. Louis, Mo.), 100 μg/mL penicillin, and 100 μg/mL streptomycin. Immortalized mouse embryonic fibroblasts derived from PART-1^+/+ and PARP-1^−/− were maintained in Dulbecco's modified Eagle's medium, 4.5 g/Liter glucose medium (INVITROGEN™, Carlsbad, Calif.) supplemented with 10% fetal bovine serum and 0.5% gentamicin (Schreiber, et al. (2002) J. Biol. Chem. 277:23028-23036). Human lymphoblastoid cells (GM15030, GM15061, GM15237, GM15268, GM15339, GM15349, GM15365, and GM15380; Coriell Cell Repositories, Camden, N.J.) were grown in RPMI 1640 medium (INVITROGEN™, Carlsbad, Calif.) supplemented with 15% fetal bovine serum (Sigma-Aldrich, St. Louis, Mo.), 100 μg/mL penicillin, and 100 μg/mL streptomycin. The cells were maintained in a humidified atmosphere of 5% CO2 and 95% air at 37° C.
(§4) A water-soluble tetrazolium salt was used to measure the amount of intracellular NAD(P)H through the reduction to a formazan dye. The total amount of NAD(P)H within viable cells in the medium was determined periodically by a spectrophotometer. Cells were seeded into 96-well plates (CHO cells and mouse fibroblasts: 5×10^3 cells/well; lymphoblastoid cells: 15×10^3 cells/well) and were cultured in 100 μL of medium with fetal bovine serum and antibiotics as described. After a 30-minute incubation, cells were treated with MMS at indicated concentrations and 1/10 volume of CCK-8 solution (Dojindo Molecular Technology, Gaithersburg, Md.) which consisted of a water-soluble 2-(2-methoxy-4-nitrophenyl)-3-(4-nitrophenyl)-5-(2,4-disulfophenyl)-2H-tetrazolium monosodium salt (WST-8; 5 mM) and 1-Methoxy-5-methylphenazinium methylsulfate (1-Methoyx PMS; 0.2 mM) as an electron mediator. Cells in each well were further cultured for up to 4 hours. WST-8 produced a water-soluble yellow-colored formazan dye through its bioreduction either in the presence of an electron carrier, such as 1-Methoxy PMS, Diaphorase, a flavoenzyme, or directly by NAD(P)H. Therefore, the reduction of tetrazolium salts predominantly depends on the amount of intracellular NAD(P)H. The amount of formazan dye produced by the living cells in the medium was determined approximately every 30 minutes by a spectrophotometer and compared to the values of the control. Absorbance was recorded in a 96-well plate reader at 450 nm with a 650 nm reference filter. A medium blank was prepared with only medium and CCK-8 reaction solution. Decreases in the intracellular NAD(P)H were assessed by comparing the absorbance of a well containing cells treated with MMS against that of a well with cells treated with phosphate-buffered saline (PBS) only.
(§5) XRCC1 functions as a scaffold for interaction with other base excision repair-associated proteins including human AP endonuclease (APE1), DNA Pol-β, DNA Ligase III, Polynucleotide Kinase (PNK), and PARP-1 (Caldecott, et al. (1996) Nucl. Acids Res. 24:4387-4394; Whitehouse, et al. (2001) Cell 104:1-11; Kubota, et al. (1996) EMBO J. 15:6662-6670; Caldecott, et al. (1994) Mol. Cell. Biol. 14:68-76; Caldecott, et al. (1995) Nucl. Acids Res. 23:4836-4843) and is required for efficient single strand break repair and genetic stability in mammalian cells. Rodent cells lacking XRCC1 are hypersensitive to DNA damaging agents (Whitehouse, et al. (2001) Cell 104:1-11; Kubota, et al. (1996) EMBO J. 15:6662-6670; Caldecott, et al. (1994) Mol. Cell. Biol. 14:68-76). […]

[7] = test system: EM9-V cells (XRCC1-deficient CHO EM9 cells expressing empty vector); experiment: as above; type: cell-based, Chinese hamster
Method: as §3, §4, §5

EM9-V cells [8] = experiment: Intracellular NAD(P)H assay using XTT or MTS; type: cell-based, Chinese hamster
Method: (§6) XTT^1) (2,3-bis[2-Methoxy-4-nitro-5-sulfophenyl]-2H-tetrazolium-5-carboxy-anilide inner salt) and MTS^2) (3-(4,5-dimethylthiazol-2-yl)-5-(3-carboxynethoxyphenyl)-2-(4-sulfophenyl)-2H-tetrazolium, inner salt), water-soluble tetrazolium salts, were used to measure the amount of intracellular NAD(P)H through the reduction to a water-soluble formazan dye. EM9-V and XH5 cells were seeded into 96-well plates and were cultured in 100 μL of medium with fetal bovine serum and antibiotics as described (10,000 cells per well). After a 30-minute incubation, cells were treated with DMS (dimethylsulfate) at indicated concentrations and 1/10 volume of either XTT with an electron coupling agents such as phenazine methosulfate (Sigma) or MTS with phenazine methosulfate (Promega). Cells in each well were further cultured for up to 4 hours. Either XTT or MTS produced a water-soluble yellow-colored formazan dye and the absorbance was recorded in a 96-well plate reader at 450 nm with a 650 nm reference filter.
(§7) These cells were exposed to DMS at different concentrations for 2.5 or 4 hours. […] In addition, CHO cells were co-exposed to DMS and PARP inhibitor, 3-aminobenzamide (10 mM) and were applied 1 to 2 hours prior to the DMS treatment and kept in the medium during DMS exposure until the cells were analyzed.

EM9-XH5 cells = experiment: Intracellular NAD(P)H assay using XTT or MTS; type: cell-based, Chinese hamster; details: DMS 4 hours (XTT) or 2.5 hours (MTS) (FIG. 7A, B)
Method: as §6, §7

COS(C)(=O)=O [MMS, methyl methanesulfonate]
cell death (trypan blue exclusion) during MMS treatment [1]: no major cell death | NAD(P)H on exposure to MMS [2]: reduced NAD(P)H | sensitivity to MMS (NAD(P)H depletion) among lymphoblastoid cell lines [3]: wide variation in the sensitivity | MMS concentration at which increase in tail moment was detected (Comet assay) (EM9-V cells [4]): ~50 µM | NAD(P)H on exposure to MMS [5]: more resistant to the decrease in NAD(P)H | intracellular NAD(P)H on treatment with MMS ([6]; MMS at different concentrations for 4 hours, dose-dependent (FIG. 2A)): significantly reduced | intracellular NAD(P)H on treatment with MMS ([7]; EM9-V cells, MMS at different concentrations for 4 hours, dose-dependent (FIG. 2A)): significantly reduced | lowest MMS concentration at which decrease in intracellular NAD(P)H was detected ([7]; EM9-V cells, at 1, 2 and 4 hours (FIG. 5A-C)): ~10 µM | earliest time at which reduction of NAD(P)H was detected during MMS exposure ([7]; EM9-V cells, real-time assay, read about every 30 minutes (FIG. 2B)): 30 min | time for ratio of NAD(P)H in EM9-V versus EM9-XH5 cells to reach a plateau ([7]; as a function of exposure time with MMS (FIG. 2C)): ≤ 1 h

COS(=O)(=O)OC [DMS, dimethylsulfate]
intracellular NAD(P)H significantly reduced by treatment with DMS (EM9-V cells [8]; DMS 4 hours (XTT) or 2.5 hours (MTS), dose-dependent (FIG. 7A, B)): significantly reduced | intracellular NAD(P)H significantly reduced by treatment with DMS (EM9-XH5 cells): not

NC(=O)c1cccc(N)c1 [3-AB, 3-aminobenzamide]
protection from reduction in NAD(P)H upon exposure to MMS ([2]; 3-AB 10 mM): protected | block of MMS-induced decrease in intracellular NAD(P)H ([6]; 3-AB 10 mM applied 1 to 2 hours before and during MMS, 4 hours (FIG. 3A)): almost completely blocked | block of MMS-induced decrease in intracellular NAD(P)H ([7]; EM9-V cells, 3-AB 10 mM applied 1 to 2 hours before and during MMS, 4 hours (FIG. 3A)): almost completely blocked | block of DMS-induced decrease in intracellular NAD(P)H (EM9-V cells [8]; 3-AB 10 mM applied 1 to 2 hours before and during DMS, XTT 4 hours or MTS 2.5 hours (FIG. 7A, B)): completely blocked

O=C1NCCc2c(OCCCCN3CCCCC3)cccc21 [DPQ, 3,4-dihydro-5-[4-(1-piperidinyl)butoxy]-1(2H)-isoquinolinone]
block of MMS-induced decrease in intracellular NAD(P)H ([6]; DPQ 90 μM applied 1 to 2 hours before and during MMS, 4 hours (FIG. 3B)): almost completely blocked | block of MMS-induced decrease in intracellular NAD(P)H ([7]; EM9-V cells, DPQ 90 μM applied 1 to 2 hours before and during MMS, 4 hours (FIG. 3B)): almost completely blocked
